Among the data in US9156828B2, “Tricyclic amidine derivatives as HIV attachment inhibitors” (priority 2012, dated 2015) are EC50 values, retold here.

The assay has as its system HIV-1 LAI envelope single-round infectious reporter virus. The assay can be described thus: Single-round infectious HIV-1 LAI luciferase reporter virus infection of MT2 cells. The class given is cell-based. As to conditions: Human immunodeficiency virus 1, MT2, 72 h. The source says:
Virus Production— • Human embryonic Kidney cell line, 293T (HEK 293T), was propagated in Dulbecco's Modified Eagle Medium (Invitrogen, Carlsbad, Calif.) containing 10% fetal bovine serum (FBS, Sigma, St. Louis, Mo.). The human T-cell leukemia cell MT2 (AIDS Research and Reference Reagent Program, Cat. 237) was propagated in RPMI 1640 (Invitrogen, Carlsbad, Calif.) containing 10% fetal bovine serum (FBS, Hyclone, Logan, Utah)
Virus Infection— • Single-round infectious reporter virus was produced by co-transfecting HEK 293T cells with plasmide expressing the HIV-1 LAI envelope along with a plasmid containing an HIV-1 LAI proviral cDNA with the envelope gene replaced by a firefly luciferase reporter gene (Chen et al., Ref 41). Transfections were performed using lipofectAMINE PLUS reagent as described by the manufacturer (Invitrogen, Carlsbad, Calif.). Experimental Procedure • 1. MT2 cells were plated in black, 384 well plates at a cell density of 5×10^3 cells per well in […] RPMI 1640 containing 10% FBS. • 2. Compound (diluted in dimethylsulfoxide and growth medium) was added to cells at 12.5 μl/well, so that the final assay concentration would be […]. • 3. 12.5 μl of single-round infectious reporter virus in Dulbecco's Modified Eagle Medium was added to the plated cells and compound at an approximate multiplicity of infection (MOI) of 0.01, resulting in a final volume of 50 μl per well. • 4. Virus-infected cells were incubated at 37 degrees Celsius in a CO2 incubator and harvested 72 h after infection. • 5. Viral infection was monitored by measuring luciferase expression in the infected cells using a luciferase reporter gene assay kit (Steady-Glo, Promega, Madison, Wis.) as described by the manufacturer. Luciferase activity was then quantified by measuring luminescence using an EnVision Multilabel Plate Readers (PerkinElmer, Waltham, Mass.). • 6. The percent inhibition for each compound was calculated by quantifying the level of luciferase expression in cells infected in the presence of each compound as a percentage of that observed for cells infected in the absence of compound and subtracting such a determined value from 100. • 7. An EC50 provides a method for comparing the antiviral potency of the compounds herein. The effective concentration for fifty percent inhibition (EC50) was calculated with the Microsoft Excel Xlfit curve fitting software. For each compound, curves were generated from percent inhibition calculated at 10 different concentrations by using a four parameter logistic model (model 205). Table 1 is the key for the data in Table 2.
For orientation: Reporter assays use an easily measured gene product as a stand-in for the process of interest.

Setting [1] is: read-out: EC50 Group from Table 1.

Read-outs that look alike come from different tables or passages of the source. Bounds are passed on as bounds.

With `O=C(C(=O)N1CCN(C2=Nc3ccccc3Oc3ccc(Cl)cc32)CC1)c1c[nH]c2ccccc12` [Compound 1001], the EC50 (usually the concentration that produces a half-maximal response) amounted to 706 nM. Besides, the concentration for a half-maximal effect (EC50) under setting [1] was greater than 500 nM.

Consider `O=C(C(=O)N1CCN(C2=Nc3cc(Cl)ccc3Nc3ccccc32)CC1)c1c[nH]c2ccccc12` [Compound 1002], for which the EC50 under setting [1] was greater than 500 nM.

For `COc1cnc(-n2cncn2)c2[nH]cc(C(=O)C(=O)N3CCN(C4=Nc5ccccc5Oc5ccc(Cl)cc54)CC3)c12` [Compound 1003], the EC50 under setting [1] is less than 500 nM.

As for `O=C(C(=O)N1CCN(C2=Nc3ccccc3Oc3ccc(Cl)cc32)CC1)c1c[nH]c2c(Br)ccc(F)c12` [Compound 1004], under setting [1], the concentration for a half-maximal effect (EC50) was greater than 500 nM.

As for `COc1cnc(-n2cnc(C)n2)c2[nH]cc(C(=O)C(=O)N3CCN(C4=Nc5ccccc5Oc5ccc(Cl)cc54)CC3)c12` [Compound 1005], the EC50 is 1.83 nM. Under setting [1], the EC50 was less than 500 nM.

As to `COc1cnc(-n2cnc(C)n2)c2[nH]cc(C(=O)C(=O)N3CCN(C4=Nc5cc(Cl)ccc5Nc5ccccc54)CC3)c12` [Compound 1006], under setting [1], the EC50 was less than 500 nM.
